# Values quoted from earlier work as cited in patent publication US11103891B2, “Pharmaceutical composition” (priority 2011, dated 2021).
# Conditions: immediate release preparations of levodopa
structure (smiles),measurement,value
N[C@@H](Cc1ccc(O)c(O)c1)C(=O)O [levodopa],levodopa dose that reaches the brain,about 5%
